Source: patent US20020006915A1, “Use of COX-2 inhibitors to treat sepsis, complications thereof, and EP receptor modulation” (priority 2000, published 2002)
“Also recorded” adds a separate entry of the source.

How the values were obtained:
[1] = system: LPS stimulated splenic macrophages; assay: Mediator production (PGE2, IL-6, TNF-α, NO) by stimulated splenic macrophages 7 days after injury, 3 in vivo doses of NS-398 within 24 h; set-up: species or system BALB/c mice
Procedure: Vehicle mice were injected with a 4% DMSO solution.
Spleens were collected aseptically and placed in separate petri dishes containing cold (4° C.) Hanks Balanced Salt Solution without calcium and magnesium (Gibco BRL, Life Technologies Inc, Grand Island, N.Y.). Splenocytes were isolated by gentle mechanical disruption of the spleen with filtration through a nylon mesh (Spectrum, Laguna Hills, Calif.). The suspension was centrifuged for 7 minutes, at 500 g and 4° C. After resuspension, erythrocytes were lysed with an ammonium chloride solution for 4 minutes and the lysate was centrifuged as previously described. The remaining pellet was resuspended in complete RPMI-1640 (Gibco BRL, Life Technologies Inc), containing 1% antibiotic/antimycotic solution and 10% heat-inactivated fetal bovine serum (Gibco BRL, Life Technologies Inc), counted and diluted to a final cell concentration of 5×10^6 cells/ml and plated. After allowing macrophages to adhere for 2 hours, the remaining cells were suctioned off and macrophages were incubated with 10 ng/ml LPS 055:B5 (Sigma, St. Louis, Mo.) for PGE2, IL-6 and TNFα determination, or (10 ng/ml LPS+100 U/ml recombinant mouse IFN-γ (Pharmingen, San Diego, Calif.) for NO2^− determination. Cells were incubated at 37° C. in a 5% CO2 atmosphere, and supernatants harvested at 24 hours and frozen at −70° C. for determination of prostaglandin, cytokine and NO production.
NO2^− was measured indirectly by determination of NO2^− concentration using the Greiss reagent system (Promega, Madison, Wis.). The BCA protein assay (Pierce, Rockford, Ill.) was used to quantify protein and all measurements were normalized to protein content per well.
Balb/c mice (n=8/group) were given 3 intraperitoneal injections of 10 mg/kg NS398; immediately following injury, at 12 and 24 hours after sham injury or trauma (femur fracture and 40% blood volume hemorrhage). Sham+placebo (C); sham+NS398 (CN); trauma+placebo (T); or trauma+NS398 (TN) groups were studied. On day 7 after injury, mice were sacrificed and splenic macrophages evaluated for cytokine production and expression of COX-2 mRNA. In a separate study, mice (n=10-12/group) were treated in an identical fashion. After 7 days, cecal ligation and puncture was performed and animals followed for survival.

[2] = system: plasma PGE2; assay: Plasma PGE2 levels at 1 and 7 days after trauma; type: in vivo, BALB/c mice
Procedure: Plasma PGE2 levels were determined in separate experiments by sacrificing mice at 1 day and at 7 days after treatment with NS-398. There was an increase in PGE2 levels at 1 and 7 days after traumatic injury compared with uninjured controls.

[3] = system: NF-κB; assay: Electrophoretic mobility shift assay of nuclear NF-κB in splenic macrophages; type: in vivo, BALB/c mice; details: NS-398 treatment after trauma, over 7 days
Procedure: NF-κB gel shift oligonucleotide 5′ AGTTGAGGGGACTTTCCCAGGC 3′ (Santa Cruz Laboratories, Santa Cruz, Calif.) was end labeled with (^32P)γATP using polynucleotide kinase T4 (Gibco BRL, Grand Island, N.Y.). End labeled probe was purified from unincorporated (^32P)-γATP using a purification column (Bio-Rad Laboratories) and recovered in tris-EDTA buffer. Samples consisted of adherent macrophages collected after 45 minutes stimulation with 10 ng/mL LPS. Adherent cells were scraped into 1 mL of cold HANKS balanced salt solution. The cell suspension was pelleted after centrifugation in a microcentrifuge for 10 seconds and resuspended in 400 μl cold Buffer A (10 mM HEPES-KOH pH 7.9 at 4° C., 1.5 mM MgCl2, 10 mM KCl, 0.5 mM dithiothreitol, 0.2 mM PMSF) by agitation of the tube. The cells were allowed to swell on ice for 10 minutes, and then vortexed for 10 seconds. Samples were centrifuged for 10 seconds and the supernatant fraction was saved at −70° C. for IκB analysis. The pellet was resuspended in 20-100 μl of cold buffer C (20 mM HEPES-KOH pH 7.9, 25% glycerol, 420 mM NaCl, 1.5 mM MgCl2. 0.2 mM EDTA, 0.5 mM dithiothreitol 0.2 mM PMSF) and incubated on ice for 20 minutes. […] Samples were subjected to electrophoretic separation on a non denaturing 5% poly-acrylamide gel at 30 mA using Tris borate EDTA for 45 minutes and analyzed by exposure to radiographic film (Kodak, Rochester, N.Y.).

[4] = system: EP2 receptor; assay: EP2 receptor expression in LPS stimulated human PBMC's via RT-PCR; type: cell-based; details: PBMC's after injury, co-incubation with NS-398
Procedure: (§1) Serial dilutions were made to co-culture cells with a final concentration of […] NS-398 in a 0.1% DMSO. Control and trauma groups were co-cultured with 0.1% DMSO vehicle for comparisons with NS-398 treated groups.

[5] = system: EP4 receptor; assay: EP4 receptor expression in LPS stimulated human PBMC's via RT-PCR; type: cell-based; details: PBMC's after injury, co-incubation with NS-398
Procedure: as §1

[6] = system: COX-2; type: cell-based, human
Procedure: Isolated PBMC's from various groups were incubated for 18 hours at which time all groups were treated with 10 ng/mL lipopolysaccharaide (LPS) 055:B5 (Sigma, St. Louis, Mo.) for 6 hours RT-PCR samples were run in a blinded fashion. Extraction of mRNA was with an RNA extraction kit (Qiagen). Total mRNA (1 μg) was reverse transcribed in an RT mastermix (50 mM KCl, 10 mM tris-HCl, 5 mM MgCl2, 1 mM dNTP, 2.5 mM oligo d(T), 50 units of RT, 20 units of RNAse inhibitor, and nuclease free water; all reagents from Perkin-Elmer, Foster City, Calif.) with an initial 10 minute incubation at room temperature and then 42° C. for 10 minutes. […] The cDNA was run on a 1% agarose gel with 3 μL of ethidium bromide (10 mg/mL solution) and bands were visualized under UV transillumination and recorded in an image acquisition processing and analysis program (Eagle Eye 2, Stratagene).
NS-398 (N-[2-(cyclohexyloxy)-4-nitrophenyl]-methanesulfonamide) was obtained from Cayman Chemical (Ann Arbor, Mich.) and prepared in DMSO at a concentration of 1 mM. Serial dilutions were made to co-culture cells with a final concentration of 10 mM NS-398 in a 0.1% DMSO. […]
To further evaluate the expression of COX-2, samples of LPS stimulated PBMC's were evaluated from control and injured subjects as well as samples co-incubated with 10 μM NS-398.

[7] = T + NS, 3 i.p. injections of 10 mg/kg, splenic macrophages day 7

In the case of `CS(=O)(=O)Nc1ccc([N+](=O)[O-])cc1OC1CCCCC1` [NS-398, N-(2-cyclohexyloxy-4-nitrophenyl)methanesulfonamide], the IL-6 [1, 7] is reported as 5.4 ± 0.9 pg/μg protein, the NO [1, 7] is reported as 8 ± 4 nmol/μgprot and the TNF-α [1, 7] is reported as 2.0 ± 0.5. For the same molecule, the PGE2 ([1]; T + NS, 3 i.p. injections of 10 mg/kg, splenic macrophages day 7, n=8) was 71 ± 14, the PGE2 production from LPS stimulated splenic macrophages ([1]; control mice treated with NS-398 (CN), 7 days) was 87 ± 10 pg/µg protein and the “IL-6 level, splenic macrophages” value ([1]; injured mice + NS-398, 7 days) was 5.4 ± 0.3 pg/µg. For the same molecule, the “nitrite levels, LPS+IFN-γ stimulated splenic macrophages” value ([1]; injured mice + NS-398, 7 days) was 0.007 ± 0.004 nmol/µg, the “TNF-α production, splenic macrophages” value ([1]; trauma + NS-398 (TN), 7 days following trauma) was 2.0 ± 0.2 pg/µL and the “PGE2 production from LPS stimulated splenic macrophages” value ([1]; trauma+NS-398 mice, 7 days following injury, treatment for 24 hours post-injury, ±SEM) was 71 ± 5 pg/µg. For the same molecule, the “Plasma PGE2 Day 1” value ([2]; Control + NS-398) was 24,652 pg/ml, the “Plasma PGE2 Day 7” value ([2]; Control + NS-398) was 7,244 pg/ml and the “Plasma PGE2 Day 1” value ([2]; Trauma + NS-398) was 26,370 pg/ml. The “Plasma PGE2 Day 7” value ([2]; Trauma + NS-398) was 4,354 pg/ml, the “Plasma PGE2 levels (in words)” value ([2]; control and injured mice, 1 and 7 days) was “attenuated in both control and injured mice” and the NF-κB activation [3] was “a decrease in NF-κB activation”. For the same molecule, the EP2 receptor expression [4] was “returns to control levels; also recorded: restored”, the EP4 receptor expression [5] was “reversed; also recorded: restored” and the COX-2 expression [6] was “reduced COX-2 expression to levels similar to that expressed by control cells”.
